Drawing on ChEMBL document CHEMBL5532706, “Passifetilactones A-E, Fatty Acid Lactones from the Fruit and Flowers of Passiflora foetida with Cytotoxic Activity” (J Nat Prod, 2024), this text covers IC50 and Activity for five compounds.

Activity calls are given as the source filed them. No cut-off for these calls is given here.

As a reminder, the IC50 is the concentration that inhibits the measured activity by half.

In series [1] the test system is KKU-M055. Put plainly: Cytotoxicity against human KKUM055 cells assessed as inhibition of cell growth incubated for 48 hrs by MTT assay. To be noted: for IC50: KKU-M055, 48 h. The format is functional, cell-based. (In general: Tetrazolium assays rely on reduction of a dye to a coloured formazan, in cell work by metabolically active cells.)
The test system of the next series is HeLa. Put plainly: Cytotoxicity against human HeLa cells assessed as inhibition of cell growth incubated for 72 hrs by MTT assay. The format is functional, cell-based.
The test system of a further series is A549. Description: Cytotoxicity against human A549 cells assessed as inhibition of cell growth incubated for 72 hrs by MTT assay. In kind it is functional, cell-based. To be noted: A549, 72 h.
For another series, the system named is PC-3. Description: Cytotoxicity against human PC-3 cells assessed as inhibition of cell growth incubated for 72 hrs by MTT assay. The format is functional, cell-based. To be noted: PC-3, 72 h.
A short description of series [2]: Cytotoxicity against human MMNK-1 cells assessed as inhibition of cell growth incubated for 48 hrs by MTT assay. To be noted: for IC50 at 48 h: MMNK-1 cells. In kind it is toxicity, cell-based.
Series [3] deals with KKU-M055. Description: Induction of apoptosis in human KKUM055 cells assessed as total apoptotic cells at 2 ug/ml incubated for 48 hrs by Annexin V-FITC/PI staining based flow cytometry analysis (reference value: 16.44%). The format is functional. The note with it: dose 2 µg/ml. Background: In flow cytometry, cells or beads pass a laser one at a time.
Series [4] is described as follows: Cytotoxicity against African green monkey Vero cells assessed as inhibition of cell growth incubated for 72 hrs by MTT assay. To be noted: African green monkey (Chlorocebus sabaeus). In kind it is toxicity, cell-based.
Series [5] deals with KKU-M055. Description: Induction of apoptosis in human KKUM055 cells assessed as total apoptotic cells at 7 ug/ml incubated for 48 hrs by Annexin V-FITC/PI staining based flow cytometry analysis (reference value: 16.44%). To be noted: dose 7 µg/ml. The format is functional.
Series [6] has as its system KKUM213. Put plainly: Induction of apoptosis in human KKUM213 cells assessed as total apoptotic cells at 2 ug/ml incubated for 48 hrs by Annexin V-FITC/PI staining based flow cytometry analysis (reference value: 18.14%). In kind it is functional, KKU-213A. The note with it: dose 2 µg/ml.
Series [7] relates to KKUM213. Put plainly: Induction of apoptosis in human KKUM213 cells assessed as total apoptotic cells at 7 ug/ml incubated for 48 hrs by Annexin V-FITC/PI staining based flow cytometry analysis (reference value: 18.14%). The format is functional, KKU-213A. To be noted: dose 7 µg/ml.
The test system of series [8] is KKUM213. Description: Cytotoxicity against human KKUM213 cells assessed as inhibition of cell growth incubated for 48 hrs by MTT assay. The format is functional, cell-based. The note with it: KKU-213A.
For series [9], the system named is KKU-M055. Put plainly: Induction of apoptosis in human KKUM055 cells assessed as total apoptotic cells at 2 ug/ml incubated for 48 hrs by Annexin V-FITC/PI staining based flow cytometry analysis (reference value: 22.11%). In kind it is functional. To be noted: dose 2 µg/ml.
Series [10] has as its system KKU-M055. Description: Induction of apoptosis in human KKUM055 cells assessed as total apoptotic cells at 7 ug/ml incubated for 48 hrs by Annexin V-FITC/PI staining based flow cytometry analysis (reference value: 22.11%). In kind it is functional. The note with it: dose 7 µg/ml.
Series [11] has as its system KKUM213. Put plainly: Induction of apoptosis in human KKUM213 cells assessed as total apoptotic cells at 2 ug/ml incubated for 48 hrs by Annexin V-FITC/PI staining based flow cytometry analysis (reference value: 17.61%). In kind it is functional, KKU-213A. To be noted: dose 2 µg/ml.
Series [12] deals with KKUM213. Put plainly: Induction of apoptosis in human KKUM213 cells assessed as total apoptotic cells at 7 ug/ml incubated for 48 hrs by Annexin V-FITC/PI staining based flow cytometry analysis (reference value: 17.61%). In kind it is functional, KKU-213A. To be noted: dose 7 µg/ml.

For the compound `CCCCCCCCCCCCCCC[C@@H]1OC(=O)C=C[C@@H]1O`, the IC50 with KKU-M055 [1] was 25.9 µM; in the series on HeLa, 3.7 µM; in the series with A549, 3.7 µM; with PC-3, 3.7 µM; in the series with KKUM213 [8], 17 µM. For the same compound, the IC50 at 48 h in [2] is 57.4 µM. The Activity in the series on KKU-M055 [3] is reported as 59%; in the series with KKU-M055 [5] it was 86%; in the series with KKUM213 [6] it was 28.97%; in the series with KKUM213 [7], 69.22%. The IC50 at 72 h in series [4] came out at 3.7 µM.

On to `CCCCCCCCCCCCCCC[C@@H](O)[C@@H]1C=CC(=O)O1`, for which the IC50 was found to be 26.3 µM in the series on KKU-M055 [1] and 51.7 µM in the series on KKUM213 [8]. Besides, the Activity result in [2] (mmnk-1, 48 h, time 48 hrs) was “Non-Toxic”.

With `CCCCCCCCCCCCCCC[C@@H]1C[C@@H]2C[C@@H](CC(=O)O2)O1`, the result with KKU-M055 [1] and with KKUM213 [8] was inactive. In addition, the IC50 in the series with HeLa, with A549 and in the series with PC-3 was 39.1 µM each time. In addition, the IC50 at 72 h in series [4] is 39.1 µM.

Turning to `CCCCCC/C=C\CCCCCCC[C@H]1CC=CC(=O)O1`, the IC50 came out at 31 µM in the series with KKU-M055 [1]; 11.2 µM in the series on HeLa; 16.9 µM in the series with A549; 23.6 µM in the series with PC-3; 22.5 µM with KKUM213 [8]. The IC50 at 48 h in series [2] amounted to 52.9 µM. Moreover, the IC50 at 72 h in series [4] was found to be 21.2 µM.

For the compound `CCCCCCCCCCCCCCC[C@H]1CC=CC(=O)O1`, the IC50 in the series with KKU-M055 [1] worked out at 19.8 µM; in the series with HeLa, 12.2 µM; in the series with A549 it was 12.2 µM; in the series on PC-3, 12.2 µM; in the series on KKUM213 [8] it was 18.2 µM. In addition, the Activity was determined as 21.29% with KKU-M055 [9], 43.4% in the series on KKU-M055 [10], 20.64% in the series with KKUM213 [11] and 19.95% in the series with KKUM213 [12]. The IC50 at 48 h in [2] was found to be 39.3 µM. In addition, the IC50 at 72 h in series [4] was found to be 12.2 µM.
